Test results from US5817668A, “S-heteroatom containing alkyl substituted-3-oxo-pyrido[1,2-A]benzimidozole-4-carboxamide derivatives useful in treating central nervous system disorders” (Ortho Pharmaceutical Corporation, priority 1997, dated 1998).
Read-outs that look alike come from different tables or passages of the source.

Tests used:
[1] = molecular target: benzodiazepine site of the GABA-A receptor; experiment: Benzodiazepine receptor binding: inhibition of 3H-flunitrazepam binding to prepared receptor membranes; conditions: read-out: GABAA Receptor Binding IC50; 3H-flunitrazepam ca. 3 nM, 10-20 min, 25 °C; >10,000 = not active
[2] = tested on: behavior suppressed by punishment (conflict) in male rats; experiment: Suppression of anxiety in adult male rat (punished-licking conflict test, Vogel); assay type: in vivo; conditions: minimum effective dose, >10 = active dose not yet determined; for minimal effective dose: Rattus norvegicus
Protocol: Male rats were deprived of water for 48 hours and were deprived of food for 24 hours prior to testing. After the first 24 hours of water deprivation, they were placed in the conflict chamber for a training period; wherein, they were allowed 200 unpunished licks from a bottle containing tap water. The experiment was run the next day. At the expected time of peak activity, the animals were placed in the chamber and allowed access to tap water. […] Their first lick initiates a 3-min test session. Subsequently,every 20th lick was punished by a 0.2-s shock delivered via the stainless-steel drinking-tube.
The Wilcoxon rank-sum test (Mann-Whitney U-test) was used to test for an increase (p<0.05, 1-tailed) in the median number of shocks in drug-treatedgroups, compared to a concurrently run vehicle-treated group. The biological assay is considered to be valid if the effects of a known anxiolytic (positive control) are detected, within the same experiment.

[3] = tested on: metrazol-induced convulsions in male CD1 mice; experiment: Suppression of metrazol-induced clonic convulsions in adult male mice; assay type: in vivo, mouse (male CD1); conditions: Mus musculus, 0.5 h, >30 = active dose not determined
Protocol: […] Water was not withheld except during the period of observations. […] Metrazol was dissolved in 0.9% sodium chloride solution, and its dose volume was 10 ml/kg. Animals were housed individually for observation of clonic convulsions, tonic convulsions and death for a period of 30 min. […] The biological assay was considered to be valid if the effects of a known anticonvulsant (positive control) were detected, within the same experiment. Activity was reported as percent reduction of clonic convulsions from the vehicle group.

[4] = po, read-out: Rat Conflict MED, po
[5] = ip, ip, read-out: Mouse Metrazol ED50, ip
[6] = po, po, read-out: Mouse Metrazol ED50, po
[7] = ip, read-out: Rat Conflict MED, ip

O=C1CCN2C(=C1C(=O)Nc1ccccc1F)N(CCNC(=O)c1ccccc1)c1cc(F)ccc12 [Compound 46]
IC50 [1]: 6.1 nM

COc1ccc(NC(=O)C2=C3N(CC#N)c4cc(F)ccc4N3CCC2=O)cc1 [Compound 82]
minimal effective dose [2, 4]: > 10 mg/kg
IC50 [1]: 8.55 nM
ED50 [3, 5]: < 1 mg/kg
ED50 [3, 6]: > 30 mg/kg

C#CCN1C2=C(C(=O)Nc3ccccc3F)C(=O)CCN2c2ccc(F)cc21 [Compound 85]
minimal effective dose [2, 7]: < 10 mg/kg
minimal effective dose [2, 4]: 1 mg/kg
IC50 [1]: 0.072 nM
ED50 [3, 5]: 0.006 mg/kg
ED50 [3, 6]: 1 mg/kg

CN1CCCC(N2C3=C(C(=O)Nc4c(F)cccc4F)C(=O)CCN3c3ccc(F)cc32)C1 (centres unmarked) [Compound 86]
minimal effective dose [2, 7]: 10 mg/kg
minimal effective dose [2, 4]: > 10 mg/kg
IC50 [1]: 26.3 nM
ED50 [3, 5]: > 10 mg/kg
ED50 [3, 6]: > 30 mg/kg

CC(=O)OCCN1C2=C(C(=O)Nc3ccccc3F)C(=O)CCN2c2ccc(F)cc21 [Compound 119, 7-Fluoro-1,2-dihydro-5-(2-acetoxyethyl)-3-oxo-N-(2-fluorophenyl)pyrido[1,2-a]benzimidazole-4-carboxamide]
IC50 [1]: 0.25 nM

CCOCN1C2=C(C(=O)Nc3ccccc3F)C(=O)CCN2c2c1ccc(F)c2F [Compound 128]
minimal effective dose [2, 4]: > 10 mg/kg
IC50 [1]: 126 nM
ED50 [3, 5]: ≥ 1 mg/kg
ED50 [3, 6]: > 30 mg/kg

COCCN1C2=C(C(=O)Nc3nccs3)C(=O)CCN2c2ccc(F)cc21 [Compound 140]
Rat Conflict MED, po ([2]; po): > 10 mg/kg

COCCN1C2=C(C(=O)Nc3nccs3)C(=O)CCN2c2ccc(F)cc21 [Compound 155]
Rat Conflict MED, po ([2]; po): 3 mg/kg

CCOCCN1C2=C(C(=O)Nc3ccccc3F)C(=O)CCN2c2ccc(F)cc21 [Compound 160]
minimal effective dose [2, 7]: < 10 mg/kg
minimal effective dose [2, 4]: 1 mg/kg
IC50 [1]: 0.48 nM
ED50 [3, 5]: < 1 mg/kg
ED50 [3, 6]: 0.3 mg/kg

O=C1CCN2C(=C1C(=O)Nc1ccccc1F)N(CC(O)CO)c1cc(F)ccc12 (centres unmarked) [Compound 162, 7-Fluoro-1,2-dihydro-5-[2,3-dihydroxypropyl]-3-oxo-N-(2-fluorophenyl)pyrido[1,2-a]benzimidazole-4-carboxamide]
IC50 [1]: 16 nM

C[S+]([O-])CCN1C2=C(C(=O)Nc3ccccc3F)C(=O)CCN2c2ccc(F)cc21 (centres unmarked) [Compound 183, 7-Fluoro-1,2-dihydro-5-[2-(methylsulfoxy)ethyl]-3-oxo-N-(2-fluorophenyl)pyrido[1,2-a]benzimidazole-4-carboxamide]
IC50 [1]: 6.19 nM
